Measured values as given in PMC4503722, “Novel Phenotypic Outcomes Identified for a Public Collection of Approved Drugs from a Publicly Accessible Panel of Assays” (PLoS ONE, 2015).
Read-outs that look alike come from different tables or passages of the source.

How the values were obtained:
[1] = test system: NCI-H716 cells; test: cells; format: cell-based, Human
[2] = test system: STC-1 cell line; format: cell-based, mouse
[3] = test system: HeLa cells; test: cells; format: cell-based; details: for EC50: read-out: CellCycle G2/M
[4] = test system: HCT116; test: cells; format: cell-based
[5] = test system: INS-1E cells; test: cells; format: cell-based, rat
[6] = test system: HT-29; test: cells; format: cell-based
[7] = molecular target: T1, hp70S6K1 (RPS6KB1) (Homo sapiens, UniProt P23443); test: Cerep LANCE kinase assay hp70S6K1 (S1 assay 31); format: biochemical; details: read-out: p70S6K1
T1 construct: purchased Cerep (LANCE kinase assay platform, contract assay)
T1 sequence (P23443 whole entry): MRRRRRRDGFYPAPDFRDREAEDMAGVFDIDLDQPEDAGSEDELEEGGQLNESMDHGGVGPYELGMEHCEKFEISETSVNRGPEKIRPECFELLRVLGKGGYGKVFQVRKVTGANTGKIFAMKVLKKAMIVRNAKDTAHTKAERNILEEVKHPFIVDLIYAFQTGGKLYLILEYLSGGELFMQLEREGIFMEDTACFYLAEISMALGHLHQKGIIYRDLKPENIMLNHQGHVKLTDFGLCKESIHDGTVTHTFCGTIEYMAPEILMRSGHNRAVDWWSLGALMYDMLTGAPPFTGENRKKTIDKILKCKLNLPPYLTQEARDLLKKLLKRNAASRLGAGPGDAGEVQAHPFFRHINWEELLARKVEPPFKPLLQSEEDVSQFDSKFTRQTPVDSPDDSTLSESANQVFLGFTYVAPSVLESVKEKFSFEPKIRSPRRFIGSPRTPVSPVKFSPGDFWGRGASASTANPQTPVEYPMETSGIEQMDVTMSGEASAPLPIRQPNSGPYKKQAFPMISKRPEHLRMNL

[8] = test system: HCT116 cells treated with a GSK3β inhibitor; test: cells; format: cell-based
[9] = test system: SNU-C1; test: cells; format: cell-based
[10] = molecular target: T2, hKDR (Homo sapiens, UniProt P35968); test: Cerep LANCE kinase assay hKDR (S1 assay 32); format: biochemical; details: read-out: KDR
T2 construct: purchased Cerep (LANCE kinase assay platform, contract assay)
T2 sequence (P35968 20-1356): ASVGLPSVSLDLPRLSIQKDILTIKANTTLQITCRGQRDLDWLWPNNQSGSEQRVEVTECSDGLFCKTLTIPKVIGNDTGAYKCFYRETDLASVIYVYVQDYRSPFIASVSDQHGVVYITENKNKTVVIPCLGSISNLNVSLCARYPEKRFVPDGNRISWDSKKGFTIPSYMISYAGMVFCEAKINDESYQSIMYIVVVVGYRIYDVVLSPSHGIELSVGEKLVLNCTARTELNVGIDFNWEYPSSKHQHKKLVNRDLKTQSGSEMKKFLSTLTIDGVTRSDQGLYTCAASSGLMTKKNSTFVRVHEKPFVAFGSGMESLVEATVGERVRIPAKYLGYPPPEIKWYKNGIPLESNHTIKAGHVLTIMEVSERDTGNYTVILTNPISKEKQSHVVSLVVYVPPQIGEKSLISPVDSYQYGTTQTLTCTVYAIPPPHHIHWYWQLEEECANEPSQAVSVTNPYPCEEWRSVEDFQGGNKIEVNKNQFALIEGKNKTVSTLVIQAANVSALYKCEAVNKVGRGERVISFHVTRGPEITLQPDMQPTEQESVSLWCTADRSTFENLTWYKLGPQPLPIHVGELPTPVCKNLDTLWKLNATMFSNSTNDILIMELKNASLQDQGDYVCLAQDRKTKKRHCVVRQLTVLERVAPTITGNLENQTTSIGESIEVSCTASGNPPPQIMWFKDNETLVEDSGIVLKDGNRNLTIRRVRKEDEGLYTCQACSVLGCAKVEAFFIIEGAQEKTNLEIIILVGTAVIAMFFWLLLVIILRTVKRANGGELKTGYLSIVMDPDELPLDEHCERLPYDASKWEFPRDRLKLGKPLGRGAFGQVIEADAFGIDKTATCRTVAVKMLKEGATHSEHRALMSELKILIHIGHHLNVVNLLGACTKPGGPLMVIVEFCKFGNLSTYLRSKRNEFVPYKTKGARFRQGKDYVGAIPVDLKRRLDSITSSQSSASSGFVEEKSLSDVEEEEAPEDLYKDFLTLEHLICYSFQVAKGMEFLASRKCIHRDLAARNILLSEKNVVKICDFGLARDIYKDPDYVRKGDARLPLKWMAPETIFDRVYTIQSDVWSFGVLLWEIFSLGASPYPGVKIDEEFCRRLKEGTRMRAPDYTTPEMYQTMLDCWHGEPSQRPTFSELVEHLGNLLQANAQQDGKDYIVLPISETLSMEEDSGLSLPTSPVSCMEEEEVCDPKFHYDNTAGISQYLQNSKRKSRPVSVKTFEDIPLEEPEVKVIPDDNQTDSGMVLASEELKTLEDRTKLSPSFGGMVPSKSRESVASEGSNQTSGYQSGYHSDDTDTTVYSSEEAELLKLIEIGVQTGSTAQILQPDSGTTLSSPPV

[11] = molecular target: T3, hGSK3b (Homo sapiens, UniProt P49841); test: Cerep LANCE kinase assay hGSK3b (S1 assay 34); format: biochemical; details: read-out: GSK3b
T3 construct: purchased Cerep (LANCE kinase assay platform, contract assay)
T3 sequence (P49841 whole entry): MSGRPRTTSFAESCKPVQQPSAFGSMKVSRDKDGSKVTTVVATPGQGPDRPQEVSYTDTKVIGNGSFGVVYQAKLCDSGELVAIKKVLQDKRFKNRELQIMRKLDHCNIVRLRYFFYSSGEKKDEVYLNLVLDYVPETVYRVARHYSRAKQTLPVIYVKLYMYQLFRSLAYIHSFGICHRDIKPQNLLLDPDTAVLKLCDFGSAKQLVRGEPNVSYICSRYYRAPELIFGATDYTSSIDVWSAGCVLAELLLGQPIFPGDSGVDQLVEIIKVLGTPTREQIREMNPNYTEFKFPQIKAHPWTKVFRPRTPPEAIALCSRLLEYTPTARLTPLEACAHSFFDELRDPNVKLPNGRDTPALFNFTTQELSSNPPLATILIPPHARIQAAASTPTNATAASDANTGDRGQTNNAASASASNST

[12] = molecular target: T4, hFLT3 (Homo sapiens, UniProt P36888); test: Cerep LANCE kinase assay hFLT3 (S1 assay 35); format: biochemical; details: read-out: FLT3
T4 construct: purchased Cerep (LANCE kinase assay platform, contract assay)
T4 sequence (P36888 27-993): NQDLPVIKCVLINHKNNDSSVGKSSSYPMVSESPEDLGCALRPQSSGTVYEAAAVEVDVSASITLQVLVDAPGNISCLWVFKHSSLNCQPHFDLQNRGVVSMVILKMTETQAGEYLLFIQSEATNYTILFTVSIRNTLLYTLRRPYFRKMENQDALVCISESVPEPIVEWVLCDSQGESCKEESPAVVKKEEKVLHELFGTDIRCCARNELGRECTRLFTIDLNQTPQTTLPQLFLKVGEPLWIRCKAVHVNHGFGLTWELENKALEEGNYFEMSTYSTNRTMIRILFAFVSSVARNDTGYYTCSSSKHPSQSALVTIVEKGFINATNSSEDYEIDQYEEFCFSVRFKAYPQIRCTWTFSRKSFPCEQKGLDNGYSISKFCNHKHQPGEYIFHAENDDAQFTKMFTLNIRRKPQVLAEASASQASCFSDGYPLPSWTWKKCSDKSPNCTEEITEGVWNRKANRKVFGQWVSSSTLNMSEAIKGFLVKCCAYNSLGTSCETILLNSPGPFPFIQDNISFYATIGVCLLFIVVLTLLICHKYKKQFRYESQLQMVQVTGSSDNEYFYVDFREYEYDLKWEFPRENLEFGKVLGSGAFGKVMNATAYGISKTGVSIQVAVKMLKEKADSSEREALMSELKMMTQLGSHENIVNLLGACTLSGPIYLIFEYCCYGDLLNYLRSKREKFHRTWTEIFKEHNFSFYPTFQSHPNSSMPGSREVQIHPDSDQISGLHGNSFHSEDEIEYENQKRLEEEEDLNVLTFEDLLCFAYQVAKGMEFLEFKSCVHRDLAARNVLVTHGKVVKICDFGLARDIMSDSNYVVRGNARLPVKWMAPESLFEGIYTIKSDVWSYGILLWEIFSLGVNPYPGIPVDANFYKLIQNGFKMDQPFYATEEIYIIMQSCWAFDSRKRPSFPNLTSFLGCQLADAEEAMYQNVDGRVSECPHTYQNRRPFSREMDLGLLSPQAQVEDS

[13] = test system: SW480; test: cells; format: cell-based
[14] = test system: nuclear β-catenin in C2C12 cells; test: cells; format: cell-based
[15] = test system: DLD-1; test: cells; format: cell-based
[16] = test system: RKO; test: cells; format: cell-based
[17] = molecular target: T5, hJAK2 (Homo sapiens, UniProt O60674); test: Cerep LANCE kinase assay hJAK2 (S1 assay 33); format: biochemical; details: read-out: JAK2
T5 construct: purchased Cerep (LANCE kinase assay platform, contract assay)
T5 sequence (O60674 whole entry): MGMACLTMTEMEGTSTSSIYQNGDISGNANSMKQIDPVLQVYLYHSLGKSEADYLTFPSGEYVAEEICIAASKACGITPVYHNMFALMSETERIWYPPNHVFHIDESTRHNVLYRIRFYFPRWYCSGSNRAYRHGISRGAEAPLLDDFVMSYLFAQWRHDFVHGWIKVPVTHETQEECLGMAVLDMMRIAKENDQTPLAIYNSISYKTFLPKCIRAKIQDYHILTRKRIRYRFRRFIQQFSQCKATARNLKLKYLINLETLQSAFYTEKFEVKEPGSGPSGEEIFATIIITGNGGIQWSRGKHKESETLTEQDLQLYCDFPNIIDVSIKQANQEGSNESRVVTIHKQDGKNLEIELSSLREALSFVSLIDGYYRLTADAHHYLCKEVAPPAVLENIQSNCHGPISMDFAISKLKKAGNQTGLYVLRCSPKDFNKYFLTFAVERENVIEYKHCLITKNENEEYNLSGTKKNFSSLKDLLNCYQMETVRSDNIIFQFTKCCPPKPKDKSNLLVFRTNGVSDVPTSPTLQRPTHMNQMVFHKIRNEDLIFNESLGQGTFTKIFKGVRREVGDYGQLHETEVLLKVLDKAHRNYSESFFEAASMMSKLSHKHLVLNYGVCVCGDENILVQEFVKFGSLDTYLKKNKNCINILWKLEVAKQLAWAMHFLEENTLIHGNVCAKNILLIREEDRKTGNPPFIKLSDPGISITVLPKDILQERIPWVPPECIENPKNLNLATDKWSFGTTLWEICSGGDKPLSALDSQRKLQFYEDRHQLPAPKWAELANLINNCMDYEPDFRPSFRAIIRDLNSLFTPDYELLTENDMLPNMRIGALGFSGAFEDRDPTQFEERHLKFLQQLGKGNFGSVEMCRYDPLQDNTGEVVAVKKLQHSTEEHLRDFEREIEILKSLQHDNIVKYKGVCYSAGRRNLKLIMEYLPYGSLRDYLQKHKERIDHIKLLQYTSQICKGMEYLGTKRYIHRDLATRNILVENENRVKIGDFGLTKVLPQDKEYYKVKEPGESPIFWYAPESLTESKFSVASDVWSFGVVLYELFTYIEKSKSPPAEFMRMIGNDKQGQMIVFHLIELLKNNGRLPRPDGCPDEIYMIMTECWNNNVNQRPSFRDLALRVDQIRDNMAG

[18] = test system: Colo320; test: cells; format: cell-based
[19] = test system: endothelial tube formation in co-cultures of ECFCs and ADSCs treated with VEGF; test: cells; format: cell-based, human
[20] = Homo sapiens, HCT-116, read-out: Basal_Viability ATP HCT116
[21] = Rattus norvegicus, INS-1E, read-out: Insulin Secretion
[22] = Homo sapiens, HT-29, read-out: Basal_Viability ATP HT-29
[23] = Homo sapiens, HCT-116, read-out: GSK3b inh pretreated_Viability ATP HCT116
[24] = Homo sapiens, SNU-C1, read-out: Basal_Viability ATP SNU-C1
[25] = Homo sapiens, SW480, read-out: Basal_Viability ATP SW480
[26] = Mus musculus, C2C12, read-out: Wnt Pathway
[27] = Homo sapiens, NCI-H716, read-out: GLP 1 Secretion
[28] = Homo sapiens, DLD-1, read-out: Basal_Viability ATP DLD-1
[29] = Homo sapiens, RKO, read-out: Basal_Viability ATP RKO
[30] = Homo sapiens, COLO 320, read-out: Basal_Viability ATP Colo 320
[31] = Homo sapiens, read-out: Anti-Angiogenesis
[32] = Homo sapiens, HeLa, IC50 / EC50, HeLa
[33] = Homo sapiens, HT-29; read-out: Basal_Viability ATP HT-29
[34] = Homo sapiens, SW480, basal, read-out: Basal_Viability ATP SW480
[35] = Mus musculus, C2C12, IC50 / EC50, C2C12 beta-catenin translocation, read-out: Wnt Pathway
[36] = Homo sapiens, RKO; read-out: Basal_Viability ATP RKO
[37] = Homo sapiens, IC50 / EC50, endothelial tube area, ADSC/ECFC co-culture, read-out: Anti-Angiogenesis

Compound: CCCCCCCCN[C@@H](C)[C@H](O)c1ccc(SC(C)C)cc1 [NCGC00018301-05]
- IC50/EC50, hNCI-H716 GLP1 Secretion (assay number 12) ([1]; concentration response): 13.0298 µM
- IC50/EC50, mSTC-1 GLP1 Secretion (assay number 13) ([2]; concentration response): > 40 µM

Compound: CC(=O)NO [NCGC00094576-05]
- hNCI-H716 GLP1 Secretion IC50/EC50 ([1]; assay number 12): > 40 µM
- mSTC-1 GLP1 Secretion IC50/EC50 ([2]; assay number 13): > 40 µM

Compound: O=c1[nH]c(=O)n([C@H]2C[C@H](O)[C@@H](CO)O2)cc1F [Floxuridine]
- EC50 ([3]; Homo sapiens, HeLa): > 10 µM
- IC50 [4, 20]: 0.001 µM
- EC50 [5, 21]: > 10 µM
- IC50 [6, 22]: > 20 µM
- IC50 ([7]; kinase assay): > 20 µM
- IC50 [8, 23]: 0.001 µM
- IC50 [9, 24]: > 20 µM
- IC50 ([10]; kinase assay): > 20 µM
- IC50 ([11]; kinase assay): > 20 µM
- IC50 ([12]; kinase assay): > 20 µM
- IC50 [13, 25]: > 20 µM
- EC50 [14, 26]: > 10 µM
- EC50 [1, 27]: > 10 µM
- IC50 [15, 28]: 0.001 µM
- IC50 [16, 29]: 0.001 µM
- IC50 ([17]; kinase assay): > 20 µM
- IC50 [18, 30]: > 20 µM
- IC50 [19, 31]: 0.0216 µM

Compound: Cc1cc(C2CCCCC2)n(O)c(=O)c1 [ciclopirox]
- EC50 ([3]; Homo sapiens, HeLa): > 10 µM
- IC50 [4, 20]: 0.656 µM
- EC50 [5, 21]: > 10 µM
- IC50 [6, 22]: 7.04 µM
- IC50 ([7]; kinase assay): > 20 µM
- IC50 [8, 23]: 0.39 µM
- IC50 [9, 24]: > 20 µM
- IC50 ([10]; kinase assay): > 20 µM
- IC50 ([11]; kinase assay): > 20 µM
- IC50 ([12]; kinase assay): > 20 µM
- IC50 [13, 25]: 0.469 µM
- EC50 [14, 26]: 1.05 µM
- EC50 [1, 27]: > 10 µM
- IC50 [15, 28]: 0.316 µM
- IC50 [16, 29]: 0.233 µM
- IC50 ([17]; kinase assay): > 20 µM
- IC50 [18, 30]: 0.208 µM
- IC50 [19, 31]: > 10 µM

Compound: Cc1ccc2nc(N)[nH]c(=O)c2c1Sc1ccncc1 [nolatrexed, reference compound]
- G2/M IC50 / EC50 [3]: 20 (values shown as 20 indicate that the compound was tested in concentration-response and showed no response at the highest concentration tested (e.g. IC50 > 20 μM))
- EC50 [3, 32]: > 10 µM
- IC50 ([4]; Homo sapiens, HCT-116, 72 h, read-out: HCT-116 viab. IC50, Table 2, basal, 72 h, Cell TiterGlo, non-adherent, 20 coded): 3.5 µM
- IC50 ([4]; Homo sapiens, HCT-116, basal, read-out: Basal_Viability ATP HCT116): 3.5 µM
- EC50 ([5]; Rattus norvegicus, INS-1E, read-out: Ins. sec. EC50): > 10 µM
- IC50 ([6]; Homo sapiens, HT-29; Table 2; 72 h, Cell TiterGlo, non-adherent; 20 coded; read-out: HT-29 viab. IC50): 4.7 µM
- IC50 [6, 33]: 4.75 µM
- IC50 [7]: 17.8 µM
- IC50 ([8]; Homo sapiens, HCT-116, 72 h, read-out: HCT-116 (GSK3β) viab. IC50): 0.83 µM
- IC50 [8, 23]: 0.83 µM
- IC50 ([9]; Homo sapiens, SNU-C1, 72 h, Table 2, 72 h, Cell TiterGlo, non-adherent, 20 coded, read-out: SNU-C1 viab. IC50): > 20 µM
- IC50 [10]: > 20 µM
- IC50 [11]: > 20 µM
- IC50 [12]: > 20 µM
- IC50 ([13]; Homo sapiens, SW480, 72 h, Table 2, 72 h, Cell TiterGlo, non-adherent, 20 coded, read-out: SW480 viab. IC50): 2.2 µM
- IC50 [13, 34]: 2.24 µM
- EC50 [14, 35]: 0.244 µM
- EC50 ([14]; Mus musculus, C2C12, read-out: Wnt pot. EC50): 0.24 µM
- EC50 ([1]; Homo sapiens, NCI-H716, read-out: GLP1 sec. EC50): > 10 µM
- IC50 ([15]; Homo sapiens, DLD-1, 72 h, read-out: DLD-1 viab. IC50): > 20 µM
- IC50 ([16]; Homo sapiens, RKO; Table 2; 72 h, Cell TiterGlo, non-adherent; 20 coded; read-out: RKO viab. IC50): 0.34 µM
- IC50 [16, 36]: 0.343 µM
- IC50 [17]: > 20 µM
- IC50 ([18]; Homo sapiens, COLO 320; Table 2; 72 h, Cell TiterGlo, non-adherent; 20 coded; read-out: Colo320 viab. IC50): > 20 µM
- IC50 [19, 37]: 7.37 µM
- IC50 ([19]; Homo sapiens, read-out: Anti-Angio IC50): 7.4 µM

Compound: CC(=O)Oc1ccc(C2(c3ccc(OC(C)=O)cc3)Oc3ccccc3NC2=O)cc1 [Bisoxatin diacetate]
- EC50 [3]: > 10 µM
- IC50 ([4]; read-out: Basal_Viability ATP HCT116): 2.42 µM
- EC50 ([5]; read-out: Insulin Secretion): > 20 µM
- IC50 ([6]; read-out: Basal_Viability ATP HT-29): > 20 µM
- IC50 [7]: > 20 µM
- IC50 ([8]; read-out: GSK3b inh pretreated_Viability ATP HCT116): 3.26 µM
- IC50 ([9]; read-out: Basal_Viability ATP SNU-C1): > 20 µM
- IC50 [10]: > 20 µM
- IC50 [11]: > 20 µM
- IC50 [12]: > 20 µM
- IC50 ([13]; read-out: Basal_Viability ATP SW480): 9.19 µM
- EC50 ([14]; read-out: Wnt Pathway): 14 µM
- EC50 ([1]; read-out: GLP 1 Secretion): > 10 µM
- IC50 ([15]; read-out: Basal_Viability ATP DLD-1): 19.7 µM
- IC50 ([16]; read-out: Basal_Viability ATP RKO): 9.23 µM
- IC50 [17]: > 20 µM
- IC50 ([18]; read-out: Basal_Viability ATP Colo 320): > 20 µM
- IC50 ([19]; read-out: Anti-Angiogenesis): 2.27 µM

Compound: O=C(CCl)c1ccc(Cl)cc1Cl [2,2',4'-Trichloroacetophenone]
- EC50 ([3]; IC50 / EC50, HeLa): > 10 µM
- IC50 ([4]; basal, read-out: Basal_Viability ATP HCT116): 6.3 µM
- EC50 ([5]; IC50 / EC50, INS-1E, read-out: Insulin Secretion): > 10 µM
- IC50 ([6]; basal; read-out: Basal_Viability ATP HT-29): 8.52 µM
- IC50 [7]: > 20 µM
- IC50 ([8]; GSK3b inhibitor pretreated, read-out: GSK3b inh pretreated_Viability ATP HCT116): 1.1 µM
- IC50 ([9]; basal, read-out: Basal_Viability ATP SNU-C1): 2.98 µM
- IC50 [10]: > 20 µM
- IC50 [11]: > 20 µM
- IC50 [12]: > 20 µM
- IC50 ([13]; basal, read-out: Basal_Viability ATP SW480): 1.25 µM
- EC50 ([14]; IC50 / EC50, C2C12 beta-catenin translocation, read-out: Wnt Pathway): 0.373 µM
- EC50 ([1]; IC50 / EC50, NCI-H716, read-out: GLP 1 Secretion): > 10 µM
- IC50 ([15]; basal, read-out: Basal_Viability ATP DLD-1): 2.07 µM
- IC50 ([16]; basal; read-out: Basal_Viability ATP RKO): 4.3 µM
- IC50 [17]: > 20 µM
- IC50 ([18]; basal; read-out: Basal_Viability ATP Colo 320): 0.53 µM
- IC50 ([19]; IC50 / EC50, endothelial tube area, ADSC/ECFC co-culture, read-out: Anti-Angiogenesis): 2.49 µM

Compound: COc1ccc2cc1Oc1ccc(cc1)C[C@H]1c3c(cc4c(c3Oc3cc5c(cc3OC)CCN(C)[C@@H]5C2)OCO4)CCN1C [Cepharanthine]
- EC50 [3, 32]: > 10 µM
- IC50 [4, 20]: 9.54 µM
- EC50 ([5]; Rattus norvegicus, IC50 / EC50, INS-1E, read-out: Insulin Secretion): > 10 µM
- IC50 [6, 33]: 1.36 µM
- IC50 [7]: > 20 µM
- IC50 ([8]; Homo sapiens, HCT-116, GSK3b inhibitor pretreated, read-out: GSK3b inh pretreated_Viability ATP HCT116): 3.57 µM
- IC50 [9, 24]: 7.48 µM
- IC50 [10]: > 20 µM
- IC50 [11]: > 20 µM
- IC50 [12]: > 20 µM
- IC50 [13, 34]: 0.308 µM
- EC50 [14, 35]: 2.05 µM
- EC50 ([1]; Homo sapiens, IC50 / EC50, NCI-H716, read-out: GLP 1 Secretion): > 10 µM
- IC50 [15, 28]: 12.4 µM
- IC50 [16, 36]: 3.79 µM
- IC50 [17]: > 20 µM
- IC50 ([18]; Homo sapiens, COLO 320; read-out: Basal_Viability ATP Colo 320): 1.43 µM
- IC50 [19, 37]: 3.02 µM
